Values quoted from earlier work, collected in US6444811B1, “Pyrazinones, compositions containing such compounds and methods of use” (Merck Frosst Canada & Co., priority 1999, dated 2002).

Key:
caspase-3 = biological target: T1, caspase-3 (Homo sapiens, UniProt P42574)
T1 sequence (P42574 29-175 limits assumed): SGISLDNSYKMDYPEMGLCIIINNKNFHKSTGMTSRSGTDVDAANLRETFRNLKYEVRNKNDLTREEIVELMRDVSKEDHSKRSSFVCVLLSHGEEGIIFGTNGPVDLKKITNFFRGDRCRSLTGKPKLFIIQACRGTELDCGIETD
T1 sequence (P42574 176-277 limits assumed): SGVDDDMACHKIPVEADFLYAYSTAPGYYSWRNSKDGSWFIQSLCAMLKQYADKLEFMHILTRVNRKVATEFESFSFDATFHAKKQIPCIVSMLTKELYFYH

caspase-1 = biological target: T2, caspase-1 (Homo sapiens, UniProt P29466)
T2 sequence (P29466 120-297 limits assumed): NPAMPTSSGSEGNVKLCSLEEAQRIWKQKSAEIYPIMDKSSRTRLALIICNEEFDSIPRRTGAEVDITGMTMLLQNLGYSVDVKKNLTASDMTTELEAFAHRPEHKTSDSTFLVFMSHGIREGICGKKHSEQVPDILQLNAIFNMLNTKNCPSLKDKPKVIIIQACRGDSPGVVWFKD
T2 sequence (P29466 317-404 limits assumed): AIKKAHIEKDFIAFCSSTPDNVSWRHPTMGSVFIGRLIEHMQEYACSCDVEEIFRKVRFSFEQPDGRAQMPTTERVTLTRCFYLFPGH

Ac-YVAD-CHO
Ki (caspase-3): 12 µM
Ki (caspase-1): < 0.001 µM
kon caspase-1 (caspase-1; slow-binding time-dependent inhibition): 380000 M⁻¹ s⁻¹
